The values below come from patent publication US8772493B2, “Compounds having auditory protective effect” (Ajou University Industry-Academic Cooperation Foundation, priority 2010, dated 2014).

The structures appear in SMILES notation.

For one data set, the system named is auditory cells. Kind of data set: FACScan with Annexin-V and PI double staining. The class given is cell-based. How it is done: The degree of apoptosis was analyzed with Annexin V-FITC Apoptosis Detection kit I (BD Biosciences, San Diego, Calif.). 3×10^5 cells were seeded on 60 mm dish, incubated, then starved for 24 hours, and treated with the compounds of Examples 1 and 2 by conditions and incubated for 24 hours. After removing the culture solution, the cells were washed two times with PBS, and suspended in the binding buffer in the ratio of 1×10^6 cells/ml. 100 μl of this solution was transferred to 5 ml tube, and after addition of 5 μl of Annexin V-FITC to the tube, well mixed together, and then reacted for about 15 minutes in the dark place. Then, 400 μl of the binding buffer was added, and the cells were counted until 10,000 cells were on Becton Dicki nson FACSscan (Lysis II Ver. 1.0). The degree of apoptosis was measured depending on the expression of Annexin V-FITC from the result of FACScan flowcytometry. In addition, the degree of apoptosis was also measured under fluorescence microscope.

For data set [1], the system named is HEI-OC1. Kind of data set: MTT assay in auditory cells HEI-OC1. The class given is cell-based. How it is done: HEI-OC1 and UB-OC1 as auditory cells were subjected to MTT assay. Auditory cell lines were seeded on a 96-well plate in the ratio of 2×10^3 cells/well, and then cultured in an incubator under the condition of 37° C., 5% CO2 for 2 days. The compounds of Examples 1 and 2 were used at various concentrations with operating 5 runs for each sample, and then cultured in the incubator for 16 hours. The plate was treated with 1 mg/ml MTT solution per well, and then cultured in the incubator for 4 hours. Then, 100 μl DMSO per well was used to dissolve formazan, and the optical density of formazan as dissolved was measured at 540 nm.

The next data set relates to zebrafish neuromast. Kind of data set: Scanning and transmission electron microscopy of zebrafish neuromast. The data set is classed as in vivo, Danio rerio. The note with it: 50 μM cisplatin, combined use of compound. The text has this: They were dried with a drier, treated with an evaporator (MED010; Baltec, Hudson, N.H.), and then observed using a scanning microscope (JSM-6700F JEOL, Tokyo, Japan).
Larvae were cut in the direction from head to tail, sliced to a thickness of […], and then stained with 1% toluidine blue. They were divided into ultrathin sections (90 nm) using Ultracut S microtome (Leica, Wetzlar, Germany), mounted on 200-mesh Athene thin bar-grids, treated with uranyl acetate and lead citrate, and then observed using s transmission electron microscope (EM 902A Carl Zeiss).

Data set [2] has as its system HEI-OC1. In words: Measurement of mitochondrial membrane potential (MMP), JC-1. The data set is classed as cell-based. Conditions: cisplatin plus compound. The protocol:
The mitochondrial membrane potential (MMP) was measured using 5,5V,6,6V-tetrachloro-1,1V,3,3V-tetraethylbenzimidazolcarbocyanine iodide (JC-1; Molecular Probes) as a lipophilic cationic probe.
JC-1 is a fluorescent dye which is accumulated by mitochondria in its inside. If the function of mitochondria is normal, MMP is high and mitochondria are predominantly red. Then, if mitochondria are damaged, MMP is reduced and mitochondria are changed into green.

For data set [3], the system named is JNK, p38, cleaved caspase 3, PARP in HEI-OC1. In words: Western blotting of apoptosis-related proteins. The data set is classed as cell-based. The note with it: cisplatin plus compound. (A western blot detects proteins with antibodies after separation by electrophoresis.)

`NC1(c2ccc(F)cc2)C(=O)Nc2ccccc2C1=O` (stereo not shown) [Example 1, 3-amino-3-(4-fluorophenyl)quinolin-2,4(1H,3H)-dione]: the “apoptosis increased by cisplatin (annexin/PI FACS), simultaneous administration of compound” value in the data set with auditory cells (50 μM of cisplatin plus compound) is “statistically significantly inhibited”. For the same molecule, the “effect of 100 μM compared to 50 μM of compound (annexin/PI FACS)” value in the data set on auditory cells (with 50 μM cisplatin, dose-dependent manner) was “better effect”. For the same molecule, in the data set with HEI-OC1 [1] (HEI-OC1, 50 of cisplatin plus compound, as the dose of the compound increases), the “cisplatin-induced apoptosis of auditory hair cells (MTT)” value is “statistically significantly inhibited”. Moreover, the “cytotoxicity in auditory hair cells (MTT)” value in the data set with HEI-OC1 [1] (HEI-OC1, compound alone, up to elevated dose of 200) is listed as “substantially no cytotoxicity”. For the same molecule, in the data set with zebrafish neuromast, the “damage of kinocilium and stereocilia caused by cisplatin (SEM, TEM)” value is “inhibited the damage of kinocilium and stereocilia”. Also, in the data set with HEI-OC1 [2], the “cisplatin-induced mitochondria damage (loss of MMP, green fluorescence)” value is reported as “inhibited”. Further, the “cisplatin-induced JNK, p38, cleaved caspase 3, PARP” value in data set [3] is “effectively inhibited”.
